Assay: Preliminary screening of ibuprofen solubility in HPMC
Type: physicochemical
Details: 0.5 part ibuprofen in 1 part HPMC w/w
Excerpt: As listed in Table 4, […] process, which is a common procedure to generate glass-solution solid dispersion (Newman, ‘Pharmaceutical Amorphous Solid Dispersions’, Wiley (2015)). […] Therefore, these dispersions exceed the solubility limit of ibuprofen in HPMC.

CC(C)Cc1ccc(C(C)C(=O)O)cc1 (racemic) [ibuprofen]
solubility of ibuprofen in HPMC: about 50 wt % of HPMC

Reference: US10792249B2, “High drug loading pharmaceutical compositions” (AcrysPharm LLC, priority 2017, dated 2020)
